SMILES strings stand for the structures. Active and inactive are the calls of the source. The rule behind the calls is not given here. Some results are limits rather than exact numbers.

The target in this assay is Ubiquitin-conjugating enzyme E2 N (Homo sapiens) (UniProt P61088). The assay can be described thus: NMR detection of UBE2N ligand binding – biophysical, purified protein (AID 1552). The settings on record: NMR binding to purified UBE2N.
Sequence of Ubiquitin-conjugating enzyme E2 N (Homo sapiens) (P61088 whole entry, looked up): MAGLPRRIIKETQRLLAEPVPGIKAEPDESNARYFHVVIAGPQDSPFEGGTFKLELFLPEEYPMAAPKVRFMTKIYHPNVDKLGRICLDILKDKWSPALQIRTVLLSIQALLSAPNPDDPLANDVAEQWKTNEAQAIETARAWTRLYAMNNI
For the compound `Cc1ccc(S(C)(=O)=O)s1`, the Kd was > 4 mM (inactive).

As for `CC(=O)OCC[C@H](C)CCC=C(C)C`, the Kd is > 4 mM (inactive).

As to `COCC(=O)Nc1cccc(Br)c1`, the Kd is > 4 mM (inactive).

For the compound `Cn1c(=O)c2c(n(C)c1=O)=NC1(CCCCC1)N=2`, the Kd is > 4 mM (inactive).

On to `CCOC(=O)Cn1cnc2sc3c(c2c1=O)CCC3`, for which the Kd was > 4 mM (inactive).

`CN(C)c1ccc(C2CC(=O)CC(=O)C2)cc1`: the Kd is > 4 mM (inactive).

For the compound `CN1CCC(N(C)Cc2cccnc2)CC1`, the Kd was > 4 mM (inactive).

With `O=C(O)CC1Sc2ccccc2NC1=O` (stereo unspecified), the Kd is > 4 mM (inactive).

For the compound `CC(CCC(=O)O)[C@H]1CCC2C3CC[C@@H]4CCCC[C@]4(C)C3CC[C@@]21C` (stereo partly specified), the Kd was > 4 mM (inactive).

`C[C@@H]1O[C@@H](O[C@H]2[C@H](Oc3cc(O)c4c(=O)cc(-c5ccc(O)cc5)oc4c3)O[C@H](CO)[C@@H](O)[C@@H]2O)[C@H](O)[C@H](O)[C@H]1O`: the Kd is > 4 mM (inactive).

Consider `Cc1cc(=O)n(CC(C)C)c(O)c1C#N`, for which the Kd is > 4 mM (inactive).

Consider `COC(=O)CCC(C)C1CCC2C3CCC4C[C@H](O)CC[C@]4(C)C3C[C@H](O)[C@]12C` (stereo partly specified), for which the Kd was > 4 mM (inactive).

As to `CC(=O)N1CC2(C)CN(C(C)=O)CC(C)(C1)C2`, the Kd was > 4 mM (inactive).

Turning to `COC(=O)c1scc(C)c1N`, the Kd is > 4 mM (inactive).

Take `c1ccc(SCc2nc(-c3cccnc3)no2)cc1`: the Kd is > 4 mM (inactive).

`c1cc(CNc2ccc3c(c2)OCCO3)ccn1`: the Kd was > 4 mM (inactive).

On to `CC(N)C(=O)c1ccco1` (stereo unspecified), for which the Kd was > 4 mM (inactive).

Regarding `Cc1ccc(N2C(=O)C3C4C=CC(O4)C3C2=O)cc1` (stereo unspecified), the Kd is > 4 mM (inactive).

Turning to `COc1cccc(-c2nc(-c3ccccn3)no2)c1OC`, the Kd is > 4 mM (inactive).

As to `C=C(C)[C@@H]1[C@H]2OC(=O)[C@@H]1[C@]1(O)C[C@H]3O[C@]34C(=O)O[C@H]2[C@]14C`, the Kd is > 4 mM (inactive).

For the compound `O=C(Nc1ccncc1)Nc1ccc(F)cc1F`, the Kd was > 4 mM (inactive).

In the case of `CC1=C(CCC(=O)O)c2cc3nc(cc4[nH]c(cc5[nH]c(cc1n2)c(C)c5C(C)O)c(C)c4C(C)O)C(C)=C3CCC(=O)O` (stereo unspecified), the Kd was > 4 mM (inactive).

`CC1CN(Cc2ccccn2)CCC1=O` (stereo unspecified): the Kd was > 4 mM (inactive).

On to `CC(=O)c1cccc(NC(=O)Nc2c(C)nn(C)c2C)c1`, for which the Kd is > 4 mM (inactive).

`N#Cc1cc2ccccc2nc1N`: the Kd is > 4 mM (inactive).

Turning to `Cc1nnc(Nc2ccc(S(N)(=O)=O)cc2)[nH]c1=O`, the Kd was > 4 mM (inactive).

For `CC1(C)Cc2nc(N3CCOCC3)c(C#N)cc2CO1`, the Kd is > 4 mM (inactive).

For `Nc1cccc2c(=O)[nH][nH]c(=O)c12`, the Kd was > 4 mM (inactive).

As for `O=C(O)C12CC3CC(CC(O)(C3)C1)C2`, the Kd is > 4 mM (inactive).

In the case of `COC(=O)C[C@H]1C(C)(C)C(=O)[C@@H]2CC3C4=CC(=O)O[C@@H](c5ccoc5)[C@]4(C)CCC3C1(C)C2=O` (stereo partly specified), the Kd is > 4 mM (inactive).

With `NC1=NC(=O)C(Cc2ccccc2)S1` (stereo unspecified), the Kd is > 4 mM (inactive).

Regarding `CC(C)n1c(-c2ccncc2)n[nH]c1=S`, the Kd is > 4 mM (inactive).

`C[C@H]1C(=O)O[C@@H]2CCN3CC=C(COC(=O)[C@](C)(O)[C@]1(C)O)[C@H]23`: the Kd was > 4 mM (inactive).

As to `Cn1c(NCc2ccco2)nc2ccccc21`, the Kd was > 4 mM (inactive).

With `CC1(C)CC[C@]2(C(=O)O)CC[C@]3(C)C(=CCC4[C@@]5(C)CC[C@@H](O)C(C)(C)C5CC[C@]43C)C2C1` (stereo partly specified), the Kd was > 4 mM (inactive).

On to `CSc1nc(-c2ccccc2)ccc1C(N)=O`, for which the Kd is > 4 mM (inactive).

As for `O=S1(=O)C=CC(N2CCCCC2)C1` (stereo unspecified), the Kd is > 4 mM (inactive).

For the compound `Nc1nc2ccc(S(N)(=O)=O)cc2s1`, the Kd is > 4 mM (inactive).

With `Cc1ncc(C(=O)O)c(-c2ccccc2)n1`, the Kd is > 4 mM (inactive).

On to `COc1c(C(=O)N2CCCC2)ccc2ccccc12`, for which the Kd was > 4 mM (inactive).

In the case of `Cn1c(=O)c2[nH]c(Nc3ccccc3)nc2n(C)c1=O`, the Kd is > 4 mM (inactive).

Consider `CCOc1cc(S(=O)(=O)N2CCOCC2)ccc1F`, for which the Kd is > 4 mM (inactive).

With `Nc1ccc(NC(=O)c2ccco2)c(Cl)c1`, the Kd is > 4 mM (inactive).

With `C=C1C([C@]2(C)C(CC(=O)OC)[C@@](C)(COC(C)=O)OC(=O)C[C@@H]2OC(C)=O)[C@@H](OC=O)[C@H](OC(=O)C(O)C(C)CC)[C@@]2(C)[C@H](c3ccoc3)CC(=O)C12O` (stereo partly specified), the Kd was > 4 mM (inactive).

Take `COc1c2c(cc3occ(-c4ccc5c(c4)OCO5)c(=O)c13)OC(C)(C)C=C2`: the Kd is > 4 mM (inactive).

For the compound `CC(=O)c1cccc(NC(=O)C=C(C)C)c1`, the Kd was > 4 mM (inactive).

As for `CC(=O)c1ccc(NC(=S)N2CCC(O)CC2)cc1`, the Kd was > 4 mM (inactive).

For the compound `Cc1cc2ncn(S(=O)(=O)N3CCOCC3)c2cc1C`, the Kd is > 4 mM (inactive).

In the case of `CC1(C)C(=O)C=C[C@@]2(C)C1=C(O)C(=O)[C@]1(C)C2CC[C@@]2(C)[C@H](c3ccoc3)C[C@H]3O[C@]321` (stereo partly specified), the Kd was > 4 mM (inactive).

With `CC(=O)c1c(O)c(C)c(O)c2c1OC1=CC(=O)C(C(C)=O)C(=O)C12C` (stereo unspecified), the Kd was > 4 mM (inactive).

As to `Cc1nnc2n(c1=O)N=C(c1ccccc1)CS2`, the Kd is > 4 mM (inactive).

Regarding `O=C(Nc1cccnc1)c1cnn2cccnc12`, the Kd is > 4 mM (inactive).

For `Nc1cccc(F)c1-c1ncon1`, the Kd was > 4 mM (inactive).

Regarding `COc1ccc2nc(NC(=O)c3cnccn3)sc2c1`, the Kd was > 4 mM (inactive).

Consider `O=C(O)CCC1=C2c3ccccc3CCN2C(=O)CC1`, for which the Kd was > 4 mM (inactive).

Consider `CCn1nnnc1Oc1ccc(Cl)cc1`, for which the Kd was > 4 mM (inactive).

As to `Clc1ncnc2[nH]ncc12`, the Kd is > 4 mM (inactive).

Regarding `CC(=O)Oc1ccc2c(c1)c(C(C)=O)c(C)n2C`, the Kd was > 4 mM (inactive).

In the case of `Cc1cc(C(=O)c2c(C)nn(C)c2Cl)n(C)n1`, the Kd is > 4 mM (inactive).

With `O=C1CSC(=Nc2ccc(F)cc2)N1`, the Kd was > 4 mM (inactive).

`Cn1ccc(NC(=S)Nc2cccc([N+](=O)[O-])c2)n1`: the Kd was > 4 mM (inactive).

Regarding `COc1cc(S(=O)(=O)N(C)C)ccc1F`, the Kd is > 4 mM (inactive).

Take `O=C(Nc1c[nH]c(=O)[nH]c1=O)c1cccs1`: the Kd was > 4 mM (inactive).

As for `CNC(=O)C1CC(=O)N(c2ccc(O)cc2)C1` (stereo unspecified), the Kd was > 4 mM (inactive).

In the case of `NC(=O)c1c(Cl)nsc1-c1ccccc1Cl`, the Kd was > 4 mM (inactive).

As for `COc1nc(C#N)c(N2CCOCC2)o1`, the Kd was > 4 mM (inactive).

Regarding `CCOC(=O)C1C(=O)C2CCN1CC2` (stereo unspecified), the Kd is > 4 mM (inactive).

For the compound `O=C1N=C(N2CCOCC2)S/C1=C\c1cccnc1`, the Kd is > 4 mM (inactive).

Take `Cc1oc(S(=O)(=O)N2CCCCC2)cc1C(=O)O`: the Kd was > 4 mM (inactive).

Take `[O-][n+]1onc2c1CCc1c-2nn(-c2ccccc2)[n+]1[O-]`: the Kd is > 4 mM (inactive).

Take `O=C(O)c1cncc(-c2cccs2)c1`: the Kd is > 4 mM (inactive).

Turning to `O=C(O)CNC(=O)c1ccc([N+](=O)[O-])cc1`, the Kd was > 4 mM (inactive).

For the compound `CC1CCC2(OC1)OC1CC3C4CCC5C[C@@H](O)CCC5(C)C4=CCC3(C)C1[C@@H]2C` (stereo partly specified), the Kd was > 4 mM (inactive).

`O=C(Nc1ccncc1)c1cncc(Br)c1`: the Kd was > 4 mM (inactive).

With `Cc1ccc(-c2nn(C)c(=O)c3ccccc23)cc1CO`, the Kd is > 4 mM (inactive).

Turning to `Cc1sc2nc(SCC(=O)N(C)C)[nH]c(=O)c2c1C`, the Kd was > 4 mM (inactive).

On to `CN(C)c1oc(-c2ccccc2Cl)nc1C#N`, for which the Kd was > 4 mM (inactive).

For the compound `O=C(NCc1ccco1)c1ccc(Br)s1`, the Kd was > 4 mM (inactive).

Consider `O=CN1CCN(C(=O)c2ccco2)CC1`, for which the Kd is > 4 mM (inactive).

For the compound `O=C(NCc1cccc(Cl)c1)c1cnccn1`, the Kd was > 4 mM (inactive).

In the case of `Nc1ncnc(NCCOCCO)c1[N+](=O)[O-]`, the Kd was > 4 mM (inactive).

`O=C1CSC(=O)N1CN1CCCC1`: the Kd was > 4 mM (inactive).

With `Cn1nc(C(=O)NCc2cccnc2)c2ccccc2c1=O`, the Kd was > 4 mM (inactive).

Turning to `CC1(C)Cc2cccc(C(=O)O)c2O1`, the Kd is > 4 mM (inactive).

Turning to `CC(=O)c1c(C)nc2ccccc2c1N`, the Kd is > 4 mM (inactive).

`NC(=O)c1cc(N)cc(C(N)=O)c1`: the Kd was > 4 mM (inactive).

As to `CC(=O)Nc1ccc(Nc2nnc(C)c(=O)[nH]2)cc1`, the Kd was > 4 mM (inactive).

Regarding `CCCC(=O)N1CCSCC1`, the Kd was > 4 mM (inactive).

For the compound `CCC(C)C(=O)O[C@H]1[C@H](O)C2C(CN3CC(C)CCC3[C@@]2(C)O)C2C[C@]34O[C@]5(O)C(OC(=O)C(C)(O)CC)CC[C@@]3(C)C5C(OC(C)=O)[C@@H](OC(C)=O)C4[C@@]21O` (stereo partly specified), the Kd was > 4 mM (inactive).

Regarding `Nc1ncnc2c1ncn2C1O[C@H](COP(=O)(O)O)[C@@H](O)[C@H]1O` (stereo partly specified), the Kd is > 4 mM (inactive).

Turning to `C[C@H]1[C@H](C)CC[C@]2(CO)CC[C@]3(C)C(=CCC4[C@@]5(C)CC[C@H](O)C(C)(C)C5CC[C@]43C)[C@H]12` (stereo partly specified), the Kd is > 4 mM (inactive).

On to `COc1ccc(C(=O)NNC(=S)NC(C)=O)cc1`, for which the Kd was > 4 mM (inactive).

In the case of `O=C(O)c1cc(O)c(O)c(O)c1`, the Kd is > 4 mM (inactive).

Regarding `COc1ccc2c(c1)OC/C(=C\c1ccc(OC)c(O)c1)C2=O`, the Kd is > 4 mM (inactive).

In the case of `NC(=O)CSc1nc2ncnc(N)c2[nH]1`, the Kd was > 4 mM (inactive).

Take `O=C1c2ccc(F)cc2C(=O)N1CO`: the Kd is > 4 mM (inactive).

The record behind these values is PubChem BioAssay AID1552 (Sanford-Burnham Center for Chemical Genomics, 2009).
